Measured values taken from PMC11462456 (Chemical Science, 2024).

What was measured:
[1] = test system: HEK293 cells; test: CellTiter-Glo 2D metabolic activity assay, HEK293; format: cell-based; details: Homo sapiens, 2D culture, 48 h
Experimental: Figure S5 Homo-degradation effect in Dual-ligand PROTACs. HEK293 cells were treated with all synthesized PROTACs or 2V-alkyne/2P-alkyne for 4 hours. Subsequently, cell lysates were prepared and the protein levels of CRBN or VHL E3 ligase were assessed by Western blotting. (A) Representative image of CRBN or VHL E3 ligase homo-degradation was screened for all PROTACs and commercial single-ligand PROTACs at a concentration of 0.1, 1 and 10 µM, respectively (equivalent volume of DMSO as control group). (B) Representative image of CRBN or VHL E3 ligase homo-degradation was screened for 2P-alkyne or 2V-alkyne at a concentration of 0.1, 1 and 10 µM, respectively (equivalent volume of DMSO as control group). Experiments were performed as three independent replicates.
(§1) 4.4 Cell viability assay on 2D cells cultures
HEK293, HCT116, A549,andSKOV-3 cells were seeded in 96-well tissue culture plates at a density of 2000-3000 cells per well in 100 µl of growth medium and incubated overnight at 37 °C with 5% CO2. The following day, the cells were treated with various concentrations of compounds or 0.05% DMSO for 48 h. […] Luminescence readout (Gen5 Data Analysis Software v3.08.01) was performed to record luminescence. […]

[2] = test system: HEK293, A549, HCT116 and SKOV-3; test: CellTiter-Glo metabolic activity, cell line panel; format: cell-based; details: 48 h
Experimental: as §1
HEK293, HCT116, A549,andSKOV-3 cells were seeded in 96-well tissue culture plates at a density of 2000-3000 cells per well in 100 µl of growth medium and incubated overnight at 37 °C with 5% CO2. The following day, the cells were treated with various concentrations of compounds or 0.05% DMSO for 48 h. After treatment, add 100 μl of Cell Titer-Glo® 2.0 Reagent (cat. no. G9243, Promega) in each well, then the 96-well plates were put on an orbital shaker for 10 min and then allow the plate to incubate at room temperature for 10-20min to stabilize the luminescent signal. Luminescence readout (Gen5 Data Analysis Software v3.08.01) was performed to record luminescence.
(1 picture or pasted object on this page, not shown here)

[3] = test system: A549 cells; test: MTT cell viability with and without washout; format: cell-based, human
Experimental: Figure S6 Dual-ligand PROTAC activity is not caused by enhanced BRD-inhibition by dual JQ1
display. A549 cells were treated with an escalating dose of 2J2V, 2J-N3 and JQ1, respectively, for 8h.
Subsequently, cells were either washed and cultured in fresh medium, or left untouched. After a total
of 48h, cell viability was measured by MTT assay (n=6). […]

[4] = target: T1, VHL (Homo sapiens, UniProt P40337); test: E3 ligase homo-degradation by western blot, VHL; format: cell-based; details: HEK293 cells, 4 h, 1 μM and 10 μM
T1 construct: western blot analysis of the levels of CRBN and VHL E3 ligase in cell lysate; endogenous in cells; host or cells: HEK293 (ATCC)
T1 sequence (P40337 whole entry): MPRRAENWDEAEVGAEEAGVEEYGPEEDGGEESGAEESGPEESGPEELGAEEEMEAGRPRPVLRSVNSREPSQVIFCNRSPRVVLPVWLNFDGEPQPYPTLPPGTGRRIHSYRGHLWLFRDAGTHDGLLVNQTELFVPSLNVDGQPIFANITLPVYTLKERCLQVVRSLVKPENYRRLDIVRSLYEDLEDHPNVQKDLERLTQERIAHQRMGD
Text: 4. Biological experiments
Primary antibodies used for western blotting included anti-human BRD2(1:2000, rabbit monoclonal, Abcam, ab139690), anti-human BRD3 (1:1000, rabbit monoclonal, Abcam, ab264420), anti-human BRD4 (E2A7X) (1:1000, rabbit monoclonal, Cell Signaling Technology, #13440), anti-human VHL (1:1000, rabbit polyclonal, Cell Signaling Technology, #68547), anti-human CRBN (D8H3S) (1:1000, rabbit polyclonal, Cell Signaling Technology, #71810), anti-human alpha Tubulin, clone B-5-1-2 (1:5000, mouse monoclonal, Merck Life Science, # 32-2500).Secondary antibodies used for western blot included: anti-mouse horseradish peroxidase-linked antibody (1:3000, sheep, GE Healthcare Life Sciences, #NA931V), and anti-rabbit horseradish peroxidase-linked antibody (1:8000, donkey, GE Healthcare Life Sciences, #NA934V). Reagent for degradation assay and compounds […]
dr. Serge Van Calenbergh, Ghent University). […]
General method of Western blot: Lysates were sonicated and centrifuged at 4 °C at 20000 g for 15 min, and the supernatants were transferred to new tubes. Protein concentration of cell lysates was measured using the DC Protein Assay kit (BIO-RAD) following manufacturer's instructions. […]
Figure S5 Homo-degradation effect in Dual-ligand PROTACs. […] Subsequently, cell lysates were prepared and the protein levels of CRBN or VHL E3 ligase were assessed by Western blotting. […]

[5] = target: T2, BRD4 (Homo sapiens, UniProt O60885); test: Western blot degradation of BRD4 in HEK293 cells; format: cell-based; details: HEK293, lenalidomide 10 μM preincubated 2 h, PROTAC 100 nM, 4 h
T2 construct: BRD2, BRD3 and BRD4 protein levels were measured by western blot; endogenous in cells; host or cells: HEK293 (ATCC)
Experimental: 4.2 Cell lines and culture
HEK293, A549, SKOV-3, HCT116 cells (ATCC)were grown in DMEM (Gibco),and all cells were supplemented with 10% (v/v) fetal bovine serum (FBS) (Sigma), 100 mg/mL penicillin/streptomycin solution (Thermo Fisher Scientific) and maintained at 37 °C and 5% CO2 in a humidified atmosphere. All cells used were tested monthly using the Mycoalert
4.3 Degradation assays by Western blot
General method of Western blot: Lysates were sonicated and centrifuged at 4 °C at 20000 g for 15 min, and the supernatants were transferred to new tubes. Protein concentration of cell lysates was measured using the DC Protein Assay kit (BIO-RAD) following manufacturer's instructions. Cell lysates were mixed with reducing sample buffer (0.5 M Tris-HCl (pH 6.8),
at 95°C. Proteins were separated by SDS–PAGE (SDS polyacrylamide gel electrophoresis) with 25–40 µg of total protein per well, transferred to 0.2-μm-pore nitrocellulose membranes (BIO-RAD), then blocked in 5%(w/v) milk in PBS and 0.5% Tween-20, and incubated overnight at 4°C with primary antibodies described in section 4.1. Secondary antibodies were added for 1h at room temperature after 3 times washing with blocking buffer. After 6 times of washing
with PBS (Thermo Fisher Scientific) and 0.5% Tween-20, Blots were detected using the Clarity Western ECL Substrate (BIO-RAD) and visualized on iBright CL 750 (Thermo Fisher Scientific) and images were analyzed using iBright Firmware 1.7.0.
4.3.1 Evaluation of the degradation capacity of PROTACs […]

## Cc1ncsc1-c1ccc(CNC(=O)C2CC(O)CN2C(=O)C(NC(=O)COCCOCCOCCNC(=O)CC2N=C(c3ccc(Cl)cc3)c3c(sc(C)c3C)-n3c(C)nnc32)C(C)(C)C)cc1 (stereo not drawn) [MZ1, reference compound]
[1]
  EC50: > 10 µM

## Cc1ncsc1-c1ccc(C(C)NC(=O)C2CC(O)CN2C(=O)C(NC(=O)COCCOCCNC(=O)CC(NC(=O)CCc2cn(CCOCCOCCOCCOCC(=O)NC(CC(=O)NCCOCCOCCNC(=O)CC3N=C(c4ccc(Cl)cc4)c4c(sc(C)c4C)-n4c(C)nnc43)C(=O)NCCOCCOCCNC(=O)CC3N=C(c4ccc(Cl)cc4)c4c(sc(C)c4C)-n4c(C)nnc43)nn2)C(=O)NCCOCCOCC(=O)NC(C(=O)N2CC(O)CC2C(=O)NC(C)c2ccc(-c3scnc3C)cc2)C(C)(C)C)C(C)(C)C)cc1 (stereo not drawn) [2J2V]
[2]
  metabolic inhibition, comparison: greater metabolic response compared to the CRBN ligase-based dual-ligand PROTACs 2J2P
[3]; 48 hours
  cytotoxic activity: much more potent
[3]; washout after 8 hours, 48 hours total
  cytotoxic potency after washout: largely retained its potency after washout
[4]
  VHL homo-degradation: did induce homo-degradation of VHL

## Cc1sc2c(c1C)C(c1ccc(Cl)cc1)=N[C@@H](CC(=O)NCCOCCOCCNC(=O)C[C@H](NC(=O)COCCOCCOCCOCCn1cc(CCC(=O)N[C@@H](CC(=O)NCCOCCOCCNc3cccc4c3C(=O)N(C3CCC(=O)NC3=O)C4=O)C(=O)NCCOCCOCCNc3cccc4c3C(=O)N(C3CCC(=O)NC3=O)C4=O)nn1)C(=O)NCCOCCOCCNC(=O)C[C@@H]1N=C(c3ccc(Cl)cc3)c3c(sc(C)c3C)-n3c(C)nnc31)c1nnc(C)n1-2 (stereo partly drawn) [2J2P]
[5]
  BRD4 degradation efficiency on addition of lenalidomide: significantly reduced
